Drawing on patent US6861390B2, “Derivatives of UK-2A” (priority 2001, dated 2005), this text covers pest or weed control and inhibition for 15 compounds.

As usually defined, the inhibition is how much of the control response was suppressed.

For assay [1], the system named is Leptosphaeria nodorum (LEPTNO). The assay can be described thus: Glume Blotch of Wheat, whole plant 24 Hour Protectant (T2). The note with it: Parastagonospora nodorum, read-out: T2 LEPTNO in vivo 1 Day Protectant, control of fungal infection.
The test system of assay [2] is Phytophthora infestans (PHYTIN). Kind of assay: whole plant or invertebrate. The note with it: in Solanum lycopersicum, 24 h, read-out: T3 PHYTIN in vivo 1 Day Protectant, control of fungal infection.
For assay [3], the system named is Puccinia recondita (PUCCRT). The assay can be described thus: Brown Rust of Wheat, whole plant 24 Hour Protectant (T5). The note with it: read-out: T5 PUCCRT in vivo 1 Day Protectant, control of fungal infection.
The test system of assay [4] is Stagonospora nodorum (Leptosphaeria nodorum, LEPTNO). The assay can be described thus: microbe, parasite or virus in culture. The class given is cell-based. The following applies: Parastagonospora nodorum, read-out: T7 LEPTNO in vitro Growth Inhibition.
The subject of assay [5] is Phytophthora infestans (PHYTIN). Kind of assay: microbe, parasite or virus in culture. It counts as cell-based. The note with it: in Secale cereale, read-out: T8 PHYTIN in vitro Growth Inhibition.
Assay [6] deals with Magnaporthe grisea (Pyricularia oryzae, PYRIOR). Kind of assay: microbe, parasite or virus in culture. It counts as cell-based. The following applies: read-out: T9 PYRIOR in vitro Growth Inhibition.
Assay [7] has as its system Rhizoctonia solani (RHIZSO). The assay can be described thus: microbe, parasite or virus in culture. It counts as cell-based. The following applies: read-out: T10 RHIZSO in vitro Growth Inhibition.
The test system of assay [8] is Mycosphaerella graminicola (Septoria tritici, SEPTTR). Kind of assay: microbe, parasite or virus in culture. The class given is cell-based. The following applies: Zymoseptoria tritici, read-out: T11 SEPTTR in vitro Growth Inhibition.
The subject of assay [9] is Ustilago maydis (USTIMA). Kind of assay: microbe, parasite or virus in culture. It counts as cell-based. The following applies: Mycosarcoma maydis, read-out: T12 USTIMA in vitro Growth Inhibition.
In assay [10] the test system is Erysiphe graminis (ERYSGT). The assay can be described thus: Powdery Mildew of Wheat, whole plant 24 Hour Protectant (T1). The following applies: Blumeria graminis, in Triticum aestivum, read-out: T1 ERYSGT in vivo 1 Day Protectant, control of fungal infection.
Assay [11] concerns Septoria tritici (SEPTTR). The assay can be described thus: Leaf Blotch of Wheat, whole plant 24 Hour Protectant (T6). The following applies: Zymoseptoria tritici; wheat (cultivar Monon), sprayed at 100 ppm, inoculated after 24 hours; read-out: T6 SEPTTR in vivo 1 Day Protectant, control of fungal infection.
The mark [12] stands for this setting: wheat (cultivar Yuma), sprayed at 100 ppm, inoculated after 24 hours.

Each structure is given as a SMILES string. Like-named read-outs stand apart in the source and are kept apart here.

`CCCOCOc1c(OC)ccnc1C(=O)N[C@H]1COC(=O)[C@H](Cc2ccccc2)[C@@H](OC(=O)C(C)C)[C@H](C)OC1=O` [Compound 6]: the pest or weed control at 100 ppm in assay [1] (setting [12]) was 75 to 100%; in assay [2], below 25%; in assay [3] (setting [12]), 75 to 100%; in assay [10] it was 25 to 74%. Further, the inhibition at 25 ppm in assay [4] is above 80%; in assay [5], below 80%; in [6], below 80%; in assay [7] it was below 80%; in assay [8] it was below 80%; in assay [9], below 80%.

Take `COc1ccnc(C(=O)N[C@H]2COC(=O)[C@H](Cc3ccccc3)[C@@H](OC(=O)C(C)C)[C@H](C)OC2=O)c1OCOC(C)(C)C` [Compound 8]: the pest or weed control at 100 ppm in [1] (setting [12]) was 75 to 100%; in [2], below 25%; in [3] (setting [12]) it was 75 to 100%; in [11] it was 75 to 100%; in [10], below 25%. Besides, the inhibition at 25 ppm in [4] is above 80%; in assay [5], below 80%; in assay [6], below 80%; in assay [7], below 80%; in assay [8], below 80%; in assay [9] it was above 80%.

For the compound `COCCOCOc1c(OC)ccnc1C(=O)N[C@H]1COC(=O)[C@H](Cc2ccccc2)[C@@H](OC(=O)C(C)C)[C@H](C)OC1=O` [Compound 11], the pest or weed control at 100 ppm in [1] (setting [12]) was 75 to 100%; in [2] it was below 25%; in assay [3] (setting [12]), 75 to 100%; in [10], 25 to 74%.

Consider `COc1ccnc(C(=O)N[C@H]2COC(=O)[C@H](Cc3ccccc3)[C@@H](OC(=O)C(C)C)[C@H](C)OC2=O)c1OC(C)OC` (some centres unmarked) [Compound 16], for which the pest or weed control at 100 ppm in assay [1] (setting [12]) was 75 to 100%; in [2] it was below 25%; in assay [10], below 25%. Besides, the inhibition at 25 ppm is above 80% in assay [4]; below 80% in assay [5]; above 80% in assay [6]; below 80% in assay [7]; above 80% in assay [8]; below 80% in assay [9].

Regarding `COc1ccnc(C(=O)N[C@H]2COC(=O)[C@H](Cc3ccccc3)[C@@H](OC(=O)C(C)C)[C@H](C)OC2=O)c1OCOC(=O)C(C)C` [Compound 23], the pest or weed control at 100 ppm is 75 to 100% in [1] (24 h), below 25% in assay [2], 75 to 100% in assay [3] (24 h) and 25 to 74% in [10]. Also, the inhibition at 25 ppm was above 80% in assay [4]; below 80% in assay [5]; below 80% in [6]; below 80% in assay [7]; below 80% in assay [8]; above 80% in [9].

Regarding `COc1ccnc(C(=O)N[C@H]2COC(=O)[C@H](Cc3ccccc3)[C@@H](OC(=O)C(C)C)[C@H](C)OC2=O)c1OCOC(=O)OC(C)C` [Compound 47], the pest or weed control at 100 ppm in assay [1] (setting [12]) is 75 to 100%; in [2] it was below 25%; in assay [3] (setting [12]) it was 75 to 100%; in assay [10] it was below 25%.

With `C=CCO[C@H]1[C@H](C)OC(=O)[C@@H](NC(=O)c2nccc(OC)c2OCOC(C)=O)COC(=O)[C@@H]1Cc1ccccc1` [Compound 52], the pest or weed control at 100 ppm in assay [1] (setting [12]) is 75 to 100%; in assay [2], below 25%; in [3] (setting [12]) it was 75 to 100%; in [10], below 25%. The inhibition at 25 ppm in assay [4] is above 80%; in assay [5] it was below 80%; in [6], above 80%; in assay [7], above 80%; in assay [8], above 80%; in [9], below 80%.

For the compound `COc1ccnc(C(=O)N[C@H]2COC(=O)[C@H](Cc3ccccc3)[C@@H](OCC(C)C)[C@H](C)OC2=O)c1OCOCC(C)C` [Compound 65], the pest or weed control at 100 ppm in assay [1] (setting [12]) was 75 to 100%; in assay [2] it was below 25%; in [3] (setting [12]), 75 to 100%; in [11] it was 75 to 100%; in assay [10], below 25%.

With `COCCOC(C)C(=O)OCOc1c(OC)ccnc1C(=O)N[C@H]1COC(=O)[C@H](Cc2ccccc2)[C@@H](OC(=O)C(C)C)[C@H](C)OC1=O` (some centres unmarked) [Compound 66], the pest or weed control at 100 ppm in [1] (setting [12]) was 75 to 100%; in [2] it was below 25%; in assay [3] (setting [12]) it was 75 to 100%. Moreover, the inhibition at 25 ppm in assay [4], in assay [5], in assay [6], in assay [7], in assay [8] and in [9] was below 80% throughout.

Take `COc1ccnc(C(=O)N[C@H]2COC(=O)[C@H](Cc3ccccc3)[C@@H](OC(=O)C(C)C)[C@H](C)OC2=O)c1OCOC(=O)C(C)OC` (some centres unmarked) [Compound 67]: the figures for the pest or weed control at 100 ppm in assay [1] (setting [12]), in [2] and in assay [3] (setting [12]) were 75 to 100%, below 25% and 75 to 100%, respectively. In addition, the inhibition at 25 ppm in [4] was below 80%; in [5], below 80%; in assay [6], below 80%; in [7], below 80%; in assay [8], below 80%; in assay [9], above 80%.

On to `CCOC(C)C(=O)OCOc1c(OC)ccnc1C(=O)N[C@H]1COC(=O)[C@H](Cc2ccccc2)[C@@H](OC(=O)C(C)C)[C@H](C)OC1=O` (some centres unmarked) [Compound 68], for which the pest or weed control at 100 ppm in assay [1] (setting [12]) is 75 to 100%; in assay [2], below 25%; in [3] (setting [12]) it was 75 to 100%. Further, the inhibition at 25 ppm in [4] was above 80%; in assay [5], below 80%; in [6], below 80%; in assay [7], above 80%; in assay [8], above 80%; in assay [9] it was above 80%.

For the compound `CCCOC(C)C(=O)OCOc1c(OC)ccnc1C(=O)N[C@H]1COC(=O)[C@H](Cc2ccccc2)[C@@H](OC(=O)C(C)C)[C@H](C)OC1=O` (some centres unmarked) [Compound 69], the pest or weed control at 100 ppm in assay [1] (setting [12]) was 75 to 100%; in [2], below 25%; in assay [3] (setting [12]) it was 75 to 100%. Further, the inhibition at 25 ppm in [4] is above 80%; in assay [5], below 80%; in assay [6] it was above 80%; in assay [7], above 80%; in assay [8], above 80%; in [9] it was above 80%.

Consider `COc1ccnc(C(=O)N[C@H]2COC(=O)[C@H](Cc3ccccc3)[C@@H](OC(=O)C(C)C)[C@H](C)OC2=O)c1OCOC(=O)COCC(F)(F)F` [Compound 70], for which the results for the pest or weed control at 100 ppm in assay [1] (setting [12]), in assay [2] and in [3] (setting [12]) were 75 to 100%, below 25% and 75 to 100%, respectively. For the same compound, the inhibition at 25 ppm is above 80% in assay [4]; below 80% in assay [5]; below 80% in [6]; below 80% in assay [7]; below 80% in assay [8]; above 80% in assay [9].

Consider `COc1ccnc(C(=O)N[C@H]2COC(=O)[C@H](Cc3ccccc3)[C@@H](OC)[C@H](C)OC2=O)c1OCOC(C)=O` [Compound 71], for which the inhibition at 25 ppm was above 80% in assay [4]; below 80% in assay [5]; above 80% in assay [6]; below 80% in assay [7]; above 80% in [8]; above 80% in assay [9].

On to `COCCOCCOCC(=O)OCOc1c(OC)ccnc1C(=O)N[C@H]1COC(=O)[C@H](Cc2ccccc2)[C@@H](OC(=O)C(C)C)[C@H](C)OC1=O` [Compound 75], for which the results for the pest or weed control at 100 ppm in assay [2] and in assay [10] were below 25% and 75 to 100%, respectively. Also, the inhibition at 25 ppm is above 80% in assay [4]; below 80% in [5]; above 80% in [6]; below 80% in [7]; above 80% in [8]; above 80% in assay [9].
